What all share (assay type): in vivo, male Sprague Dawley rats
The subject of experiment [1] is blood glucose level in non-diabetic rats. In words: Hypoglycemic activity in non-diabetic rats (screening test). The note with it: Rattus norvegicus, 100 mg/kg oral, fasted, glucose s.c. As to the method:
(§1) These new compounds of the present invention are very useful as anti-diabetic agents, which is supported from the following pharmacological studies. The animals used for the pharmacological studies were male Sprague Dawley rats exept otherwise noted. 1. Hypoglycemic activity in non-diabetic rats (screening test)
The rats were fasted for 16 - 18 hours prior to the experiment and those weighing 140 - 160g were used. Glucose solution (100 mg/0.5ml/150g body weight) was subcutaneously injected on the fasted rats. Each of the present compounds was suspended in 1% carboxymethyl cellulose (CMC), and about 0.5 ml of the suspension (corresponding to 100 mg/kg of the compound per body weight) was orally administered. Blood samples were taken from the tail vein of the rats at 2 and 5 hours after the administration, and the blood glucose level in each sample (0.1 ml) was determined by the micro method of Momose as described in SOGO-RINSHO 11, 120 (1962).
3,5-Dinitrophthalic acid is reduced with glucose to stable orange-red azo-compound via red hydroxyaminophthalic acid in basic media.
To 0.5ml of water was added 0.1ml of blood and shaken to hemolyze, and to which was added 1.7ml of 0.06N barium hydroxide solution. To the resulting dark-brown solution was added 1.7ml of zinc sulfate solution (1g/dl), and which was shaken thoroughly and allowed to stand for 2-3min followed by centrifugation.
One ml of 3,5-dinitrophthalic acid solution (1.5g of monopyridinium-3,5-dinitrophthalate in 500ml of water) and 1 ml of sodium carbonatesodium hyposulfite solution (125-25g/500ml) were added to 2ml of spernatant solution. The solution was heated at 100° C for 10 min. After cooling with running water for 3 min, water was added to make 20ml.
To 2ml of water were added 3,5-dinitrophthalic acid solution and an alkaline solution, and the solution was treated as mentioned above.
As the absorbance of reference at 450nm was adjusted to 0, the absorbance of sample corresponded to blood glucose level.

Experiment [2] relates to blood glucose level in alloxan diabetic rats. The experiment can be described thus: Hypoglycemic effect in alloxan diabetic rats. The note with it: ± SE. The protocol:
as §1
(§2) Alloxan diabetic rats were obtained as follows. Namely, 2.5% fresh solution of alloxan (50mg/kg) was injected into the tail vein of male rats, and the rats were daily injected with insulin (1-4 units/day) from the 7th day after the administration of alloxan. The alloxan diabetic rats which were survived for more than 2 months with daily injection of insulin were used. The alloxan diabetic rats were fasted for 24 hours after the last treatment with insulin, and then the compound of the present invention was orally administered. The blood glucose levels were determined by the micro method of Momose before and 2, 4 and 6 hours after the administration.

The subject of experiment [3] is blood glucose level in non-diabetic rats. The experiment can be described thus: Blood glucose level in non-diabetic rats at 90 minutes. The conditions noted are these: 100 mg/kg oral. As to the method: as §1
(§3) The rats were fasted for 16-18 hours, and those weighing 130-160g were used. The compound 4 suspended in 1% CMC was orally administered to the fasted rats, and at 90 minutes after administration blood was drawn from the […] vena cava under anesthesia with sodium pentobarbital. The blood glucose level was determined by the method of Momose, and the serum FFA level was determined by the method of Itaya and Ui as described in J. Lipid Res., 6, 16 (1965), respectively.

Experiment [4] deals with serum FFA level in non-diabetic rats. In words: Serum free fatty acids (FFA) level in non-diabetic rats at 90 minutes. The note with it: 100 mg/kg oral. The protocol:
as §1, §3

The subject of experiment [5] is serum FFA level in alloxan diabetic rats. In words: Serum FFA level in alloxan diabetic rats, 10 consecutive days. The conditions noted are these: 100 mg/kg, 10 consecutive days. The protocol:
as §1, §2
(§4) The alloxan diabetic rats which were prepared and then preserved for 6 months with insulin as described in the previous experiment were used.

The test system of experiment [6] is serum cholesterol level in alloxan diabetic rats. The experiment can be described thus: Serum cholesterol level in alloxan diabetic rats, 10 consecutive days. The conditions noted are these: 100 mg/kg, 10 consecutive days. As to the method: as §1, §2, §4
For experiment [7], the system named is blood glucose level in streptozotocin-diabetic rats. The experiment can be described thus: Hypoglycemic effect in streptozotocin-diabetic rats. The conditions noted are these: Rattus norvegicus; 100 mg/kg oral; 4 hours. The protocol:
The animals used for the pharmacological studies were male Sprague Dawley rats exept otherwise noted. 1. […]
The rats were fasted for 16 hours, and then streptozotocin was intravenously injected in a dose of 65 mg/kg. Oral administration of the compound 4 was performed at 48 hours after the injection of streptozotocin. Blood samples were taken at 4 hours after the oral administration, and the blood glucose level in each sample was determined.

Experiment [8] concerns serum FFA level in fasted rats. The experiment can be described thus: Time course of the serum FFA level in fasted rats (FIG. 1). The conditions noted are these: 50 mg/kg oral; 0.5, 1, 2, 4 and 6 hours. The protocol: as §1
Further experiment was performed to clarify the effectiveness of the compound 4 on the serum FFA. Blood samples were taken at 0.5, 1, 2, 4 and 6 hours after an oral administration of 50 mg/kg to the fasted rats and the serum FFA levels were determined.

Experiment [9] deals with blood glucose level in alloxan diabetic rats. The experiment can be described thus: Blood glucose level in alloxan diabetic rats loaded with much quantity of glucose. The note with it: alloxan diabetic rats; dose not stated. As to the method: as §1
Respective dose of the compound 4 (12.5 and 100 mg/kg) together with 2g/kg of glucose was orally administered to the alloxan diabetic rats.

The mark [10] stands for this setting: 2 hours, read-out: Reduction % of blood glucose from control after 2 hours.
The mark [11] stands for this setting: 5 hours, read-out: Reduction % of blood glucose from control after 5 hours.

Where two headings read alike, the source gives them in different places.

Regarding `Cc1cc(C)n(C(=O)CCNS(=O)(=O)c2ccccc2)n1` [Example 1, 1-(N-benzenesulfonyl-β-alanyl)-3,5-dimethylpyrazole], the inhibition in vivo at 100 mg/kg in experiment [1] (setting [10]) worked out at 22.1%; in [1] (setting [11]), 19.8%.

For `CC(=O)NCCc1ccc(S(=O)(=O)NCCC(=O)n2nc(C)cc2C)cc1` [Example 2, 1-≡N-[p-(2-acetaminoethyl)benzene-sulfonyl]-β-alanyl.quadrature. -3,5-dimethylpryrazole], the values for the inhibition in vivo at 100 mg/kg in experiment [1] (setting [10]) and in [1] (setting [11]) were 37.1% and 26%, respectively.

As to `Cc1cc(C)n(C(=O)CCNS(=O)(=O)c2ccc(CCNC(=O)c3cnccn3)cc2)n1` [Example 3, 1-≡N-≡ p-[2-(2-pyrazinecarbonyl-amino)ethyl]benzenesulfonyl.quadrature. -β-alanyl.quadrature. -3,5-dimethylpyrazole], the inhibition in vivo at 100 mg/kg in experiment [1] (setting [10]) came out at 41.7%; in experiment [1] (setting [11]) it was 25.7%.

For `CC(=O)NCCc1ccc(S(=O)(=O)NCC(=O)n2nc(C)cc2C)cc1` [Example 5, 1-≡N-[p-(2-acetaminoethyl)-benzenesulfonyl]-glycyl.quadrature.-3,5-dimethylpyrazole], the inhibition in vivo at 100 mg/kg in [1] (setting [10]) is 35.2%; in [1] (setting [11]), 34.1%.

Regarding `CCOC(=O)NCCc1ccc(S(=O)(=O)NCC(=O)n2nc(C)cc2C)cc1` [Example 6, 1-≡N-[p-(2-ethoxycarbonylaminoethyl)benzenesulfonyl]-glycyl.quadrature.-3,5-dimethylpyrazole], the inhibition in vivo at 100 mg/kg in experiment [1] (setting [10]) was 33.3%; in [1] (setting [11]), 22.1%.

For the compound `CCOC(=O)NCCc1ccc(S(=O)(=O)NCCC(=O)n2nc(C)cc2C)cc1` [Example 7, 1-≡N-[p-(2-ethoxycarbonylaminoethyl)benzenesulfonyl]-β -alanyl.qu adrature.-3,5-dimethylpyrazole], the figures for the inhibition in vivo at 100 mg/kg in experiment [1] (setting [10]) and in experiment [1] (setting [11]) were 41.6% and 23.3%, respectively.

As for `Cc1cc(C)n(C(=O)CCNS(=O)(=O)c2ccc(Cl)cc2)n1` [Example 8, 1-[N-(p-chlorobenzenesulfonyl)-β-alanyl]-3,5-dimethylpyrazole], the values for the inhibition in vivo at 100 mg/kg in experiment [1] (setting [10]) and in [1] (setting [11]) were 42.5% and 22.1%, respectively.

`COc1ccc(Cl)cc1C(=O)NCCc1ccc(S(=O)(=O)NCC(=O)n2nc(C)cc2C)cc1` [Example 9, 1-≡N-≡p-[2-(2-methoxy-5-chlorobenzoylamino)-ethyl]benzenesulfonyl.quadrature.glycyl.quadrature.-3,5-dimethyl-pyrazole]: the inhibition in vivo at 100 mg/kg in experiment [1] (setting [10]) amounted to 48.1%; in experiment [1] (setting [11]) it was 17.7%.

For the compound `Cc1cc(C)n(C(=O)CNS(=O)(=O)c2ccc(C3CCCCC3)cc2)n1` [Example 10, 1-[N-(p-cyclohexylbenzenesulfonyl)-glycyl]-3,5-dimethylpyrazole], the inhibition in vivo at 100 mg/kg in experiment [1] (setting [10]) came to 42.1%; in [1] (setting [11]), 3.3%.

For `Cc1cc(C)n(C(=O)CNS(=O)(=O)c2ccc(CC(C)C)cc2)n1` [Example 11, 1-[N-(p-isobutylbenzenesulfonyl)-glycyl]-3,5-dimethylpyrazole], the inhibition in vivo at 100 mg/kg in experiment [1] (setting [10]) is 37.9%; in [1] (setting [11]) it was 1.4%.

On to `Cc1cc(C)n(C(=O)C(NS(=O)(=O)c2ccc(Cl)cc2)c2ccccc2)n1` (stereo not drawn) [Example 12, 1-[N-(p-chlorobenzenesulfonyl)-α-phenylglycyl]-3,5-dimethylpyrazole], for which the inhibition in vivo at 100 mg/kg in experiment [1] (setting [10]) amounted to 32.6%; in experiment [1] (setting [11]), 4%.

With `Cc1cc(C)n(C(=O)[C@H](C)NS(=O)(=O)c2ccc(Cl)cc2)n1` [Example 13, 1-[N-(p-chlorobenzenesulfonyl)-alanyl]-3,5-dimethylpyrazole], the inhibition in vivo at 100 mg/kg in experiment [1] (setting [10]) worked out at 51.3%; in [1] (setting [11]), 5%.

As to `Cc1cc(C)n(C(=O)[C@H](Cc2ccccc2)NS(=O)(=O)c2ccc(Cl)cc2)n1` [Example 14, 1-[N-(p-chlorobenzenesulfonyl)-phenylalanyl]-3,5-dimethylpyrazole], the inhibition in vivo at 100 mg/kg in [1] (setting [10]) was 43.6%; in experiment [1] (setting [11]) it was -0.9%.

A word on the inhibition: it is the share of the control response that was lost under treatment. In the case of `[H]/N=C(/N)N/C(=N/[H])NCCc1ccccc1` [Phenformin, phenethylbiguanide, reference compound], the “Blood glucose before administration” value in [2] (100 mg/kg oral group, before administration (baseline)) is 368.7 ± 31.3 mg%. The “Blood glucose 2 hours” value in [2] (100 mg/kg oral, 2 hours) is given as 262.2 ± 43.3 mg%. Further, in experiment [2] (100 mg/kg oral, 4 hours), the “Blood glucose 4 hours” value was determined as 196.0 ± 48.9 mg%. Besides, in experiment [2] (100 mg/kg oral, 6 hours), the “Blood glucose 6 hours” value is recorded as 133.7 ± 29.3 mg%. The Blood glucose level in experiment [3] was found to be 103.0 ± 6.9 mg/dL. Moreover, in experiment [4], the “Serum FFA level” value is listed as 59.8 ± 18.0 μ Eq/dl. In [5], the FFA stood at 89.9 ± 16.4 μ Eq/dl serum. Besides, the Cholesterol in experiment [6] is 63.5 ± 5.4 mg/dl serum. Besides, the inhibition at 100 mg/kg in experiment [7] is 79.9 ± 2.9%.

Consider `COCCOc1cnc(NS(=O)(=O)c2ccccc2)nc1` [sodium glymidine], for which, in [8], the “Effect on serum FFA level (in words, FIG. 1)” value was “only a slight suppression”. Besides, the “Hypoglycemic effect (in words)” value in experiment [9] is given as “no hypoglycemic effect”.

Source of the values: patent US4007201A, “Novel pyrazole derivatives” (Kyorin Pharmaceutical Co. Ltd., priority 1975, dated 1977).
